Test results taken from patent US20250320213A1, “Nitrogen-Containing Heterocyclic Compounds” (Pfizer Inc., priority 2024, published 2025).

Target: T1, STAT6 (Homo sapiens, UniProt P42226)
T1 construct: stably transfected HaCaT keratinocyte cell line, which expresses NanoLuc luciferase reporter gene under the transcriptional control of the STAT6 responsive promoter; endogenous in cells; host or cells: HaCaT keratinocyte reporter cell line (stably transfected with a NanoLuc reporter)
T1 sequence (P42226 1-847): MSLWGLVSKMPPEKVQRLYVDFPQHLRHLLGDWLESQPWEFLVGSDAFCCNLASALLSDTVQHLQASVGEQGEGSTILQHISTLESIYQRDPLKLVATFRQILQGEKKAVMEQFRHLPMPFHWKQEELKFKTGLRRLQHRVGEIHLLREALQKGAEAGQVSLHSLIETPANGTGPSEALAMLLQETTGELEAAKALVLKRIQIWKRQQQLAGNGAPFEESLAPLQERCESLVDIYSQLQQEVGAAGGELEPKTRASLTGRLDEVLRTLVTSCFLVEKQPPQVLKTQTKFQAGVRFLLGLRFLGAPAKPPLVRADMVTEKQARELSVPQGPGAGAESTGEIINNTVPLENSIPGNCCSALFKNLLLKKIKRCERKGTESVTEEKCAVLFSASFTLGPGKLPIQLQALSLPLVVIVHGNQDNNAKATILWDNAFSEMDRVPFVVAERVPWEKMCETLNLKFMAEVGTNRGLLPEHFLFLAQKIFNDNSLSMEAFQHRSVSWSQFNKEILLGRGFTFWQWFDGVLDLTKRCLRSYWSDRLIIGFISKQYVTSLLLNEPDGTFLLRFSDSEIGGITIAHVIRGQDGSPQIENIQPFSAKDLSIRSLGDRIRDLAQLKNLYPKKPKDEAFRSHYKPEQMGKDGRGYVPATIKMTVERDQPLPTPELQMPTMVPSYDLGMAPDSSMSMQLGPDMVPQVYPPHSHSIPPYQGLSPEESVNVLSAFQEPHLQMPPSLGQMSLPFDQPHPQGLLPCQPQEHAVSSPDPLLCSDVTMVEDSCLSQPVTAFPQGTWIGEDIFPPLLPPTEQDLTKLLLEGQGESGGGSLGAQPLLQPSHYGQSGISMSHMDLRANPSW
Assay: STAT6 Reporter Luciferase Assay (IL-13 stimulated HaCaT keratinocyte NanoLuc reporter cells)
Type: cell-based
Conditions: IL-13 stimulated HaCaT STAT6 NanoLuc reporter cells; read-out: Reporter EC50
Procedure, shortened: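 Stably transfected HaCaT cells carrying NanoLuc under the STAT6-responsive IL-13Ra2 promoter were pre-treated with compound (11-point, 4-fold series, duplicate) for 2 h at 37 °C, then stimulated with 0.12 nM IL-13 for 4 h. Nano-Glo luminescence was read after 15 min.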

Row | Compound | EC50 [nM]
1 | CC(C)n1nc(C(=O)NCc2ccc(NC(=O)N(C)C)cc2)c2c1CCN(c1ccc(C(=O)N3CCNC(=O)C3(C)C)cn1)C2 [Example 217, 5-(5-(2,2-dimethyl-3-oxopiperazine-1-carbonyl)pyridin-2-yl)-N-(4-(3,3-dimethylureido)benzyl)-1-isopropyl-4,5,6,7-tetrahydro-1H-pyrazolo[4,3-c]pyridine-3-carboxamide] | 272
2 | CC(C)n1nc(C(=O)NCc2ccc(NC(=O)N(C)C)cc2)c2c1CCN(c1ccc(C(=O)N3CCCOCC3)cn1)C2 [Example 195, 5-(5-(1,4-oxazepane-4-carbonyl)pyridin-2-yl)-N-(4-(3,3-dimethylureido)benzyl)-1-isopropyl-4,5,6,7-tetrahydro-1H-pyrazolo[4,3-c]pyridine-3-carboxamide] | 164
3 | CC(C)n1nc(C(=O)NCc2ccc(NC(=O)N(C)C)cc2)c2c1CCN(c1ccc(C(=O)N3CCc4nocc4C3)cn1)C2 [Example 383, N-(4-(3,3-dimethylureido)benzyl)-1-isopropyl-5-(5-(4,5,6,7-tetrahydroisoxazolo[4,3-c]pyridine-5-carbonyl)pyridin-2-yl)-4,5,6,7-tetrahydro-1H-pyrazolo[4,3-c]pyridine-3-carboxamide] | 49
4 | CC(C)n1nc(C(=O)NCc2ccc(NC(=O)NC3(C)CNC3)cc2)c2c1[C@@H](C)CN(c1ccc(C(=O)N(C)C)cc1)C2 [Example 739, (S)-5-(4-(dimethylcarbamoyl)phenyl)-1-isopropyl-7-methyl-N-(4-(3-(3-methylazetidin-3-yl)ureido)benzyl)-4,5,6,7-tetrahydro-1H-pyrazolo[4,3-c]pyridine-3-carboxamide] | 2
5 | CC(C)n1nc(C(=O)NCc2ccc(NC(=O)N(C)C)cc2)c2c1[C@@H](C)CN(c1ccc(C(=O)N(C)CC3CCN(Cc4ccccc4)CC3)cc1)C2 [Example 662, (S)-5-(4-(((1-benzylpiperidin-4-yl)methyl)(methyl)carbamoyl)phenyl)-N-(4-(3,3-dimethylureido)benzyl)-1-isopropyl-7-methyl-4,5,6,7-tetrahydro-1H-pyrazolo[4,3-c]pyridine-3-carboxamide] | 3
6 | CC(C)n1nc(C(=O)NCc2ccc(NC(=O)N(C)C)cc2)c2c1[C@@H](C)CN(c1ccc(C(=O)N3Cc4cccnc4C3)cc1)C2 [Example 676, (S)-5-(4-(6,7-dihydro-5H-pyrrolo[3,4-b]pyridine-6-carbonyl)phenyl)-N-(4-(3,3-dimethylureido)benzyl)-1-isopropyl-7-methyl-4,5,6,7-tetrahydro-1H-pyrazolo[4,3-c]pyridine-3-carboxamide] | 0.3
7 | CC(C)n1nc(C(=O)NCc2ccc(NC(=O)N(C)C)cc2)c2c1CCN(c1ccc(C(=O)N3CCC4(CCC(=O)N4)CC3)cn1)C2 [Example 329, N-(4-(3,3-dimethylureido)benzyl)-1-isopropyl-5-(5-(2-oxo-1,8-diazaspiro[4.5]decane-8-carbonyl)pyridin-2-yl)-4,5,6,7-tetrahydro-1H-pyrazolo[4,3-c]pyridine-3-carboxamide] | 1050
8 | CC(C)n1nc(C(=O)NCc2ccc(NC(=O)N(C)C)cc2)c2c1CCN(c1ccc(C(=O)N3C[C@H]4C[C@@H](C3)O4)cn1)C2 [Example 212, 5-(5-((1R,5S)-6-oxa-3-azabicyclo[3.1.1]heptane-3-carbonyl)pyridin-2-yl)-N-(4-(3,3-dimethylureido)benzyl)-1-isopropyl-4,5,6,7-tetrahydro-1H-pyrazolo[4,3-c]pyridine-3-carboxamide] | 278
9 | CC(C)n1nc(C(=O)NCc2ccc(NC(=O)N3CCC4(CCN(C)C4)CC3)cc2)c2c1[C@@H](C)CN(c1ccc(C(=O)N(C)C)cc1)C2 [Example 753, (S)-N-(4-((5-(4-(dimethylcarbamoyl)phenyl)-1-isopropyl-7-methyl-4,5,6,7-tetrahydro-1H-pyrazolo[4,3-c]pyridine-3-carboxamido)methyl)phenyl)-2-methyl-2,8-diazaspiro[4.5]decane-8-carboxamide] | 0.5
10 | COC1CCN(C(=O)c2ccc(N3CCc4c(c(C(=O)NCc5ccc(NC(=O)N(C)C)cc5)nn4C(C)C)C3)nc2)CC1 [Example 199, N-(4-(3,3-dimethylureido)benzyl)-1-isopropyl-5-(5-(4-methoxypiperidine-1-carbonyl)pyridin-2-yl)-4,5,6,7-tetrahydro-1H-pyrazolo[4,3-c]pyridine-3-carboxamide] | 125
11 | CC(C)n1nc(C(=O)NCc2ccc(NC(=O)N(C)C)cc2)c2c1CCN(c1ccc(C(=O)N3Cc4ccc(C#N)cc4C3)cn1)C2 [Example 411, 5-(5-(5-cyanoisoindoline-2-carbonyl)pyridin-2-yl)-N-(4-(3,3-dimethylureido)benzyl)-1-isopropyl-4,5,6,7-tetrahydro-1H-pyrazolo[4,3-c]pyridine-3-carboxamide] | 8
12 | CC(C)n1nc(C(=O)NCc2ccc(NC(=O)N(C)C)cc2)c2c1CCN(c1ccc(C(=O)N3CCc4cncnc4C3)cn1)C2 [Example 433, N-(4-(3,3-dimethylureido)benzyl)-1-isopropyl-5-(5-(5,6,7,8-tetrahydropyrido[3,4-d]pyrimidine-7-carbonyl)pyridin-2-yl)-4,5,6,7-tetrahydro-1H-pyrazolo[4,3-c]pyridine-3-carboxamide] | 276
13 | CC(C)n1nc(C(=O)NCc2ccc(NC(=O)N(C)C)cc2)c2c1CCN(c1ccc(C(=O)N3CCC(O)C3)cn1)C2 (racemic) [Example 198, rac-(R)-N-(4-(3,3-dimethylureido)benzyl)-5-(5-(3-hydroxypyrrolidine-1-carbonyl)pyridin-2-yl)-1-isopropyl-4,5,6,7-tetrahydro-1H-pyrazolo[4,3-c]pyridine-3-carboxamide] | 210
14 | CC(C)n1nc(C(=O)NCc2ccc(NC(=O)N(C)C)cc2)c2c1CCN(c1ccc(C(=O)N3C[C@@H]4C[C@H]3C(=O)N4)cn1)C2 [Example 227, N-(4-(3,3-dimethylureido)benzyl)-1-isopropyl-5-(5-((1S,4S)-6-oxo-2,5-diazabicyclo[2.2.1]heptane-2-carbonyl)pyridin-2-yl)-4,5,6,7-tetrahydro-1H-pyrazolo[4,3-c]pyridine-3-carboxamide] | > 6120
15 | Cc1nn(C)c2c1CCN(C(=O)c1ccc(N3CCc4c(c(C(=O)NCc5ccc(NC(=O)N(C)C)cc5)nn4C(C)C)C3)nc1)C2 [Example 418, 5-(5-(1,3-dimethyl-4,5,6,7-tetrahydro-1H-pyrazolo[3,4-c]pyridine-6-carbonyl)pyridin-2-yl)-N-(4-(3,3-dimethylureido)benzyl)-1-isopropyl-4,5,6,7-tetrahydro-1H-pyrazolo[4,3-c]pyridine-3-carboxamide] | 61
16 | CC(C)n1nc(C(=O)NCc2ccc(NC(=O)N(C)C)cc2)c2c1CCN(c1ccc(C(=O)N3CCc4scnc4C3)cn1)C2 [Example 403, N-(4-(3,3-dimethylureido)benzyl)-1-isopropyl-5-(5-(4,5,6,7-tetrahydrothiazolo[4,5-c]pyridine-5-carbonyl)pyridin-2-yl)-4,5,6,7-tetrahydro-1H-pyrazolo[4,3-c]pyridine-3-carboxamide] | 12
17 | CC(C)n1nc(C(=O)NCc2ccc(NC(=O)N(C)C)cc2)c2c1CCN(c1ccc(C(=O)N3CC(=O)N(C)[C@H](C)C3)cn1)C2 [Example 293, (R)-5-(5-(3,4-dimethyl-5-oxopiperazine-1-carbonyl)pyridin-2-yl)-N-(4-(3,3-dimethylureido)benzyl)-1-isopropyl-4,5,6,7-tetrahydro-1H-pyrazolo[4,3-c]pyridine-3-carboxamide] | 100
18 | CC(C)n1nc(C(=O)NCc2ccc(NC(=O)N3CCN(C)CC3)cc2)c2c1[C@@H](C)CN(c1ccc(-c3nncn3C3CC3)cn1)C2 [Example 655, (S)-5-(5-(4-cyclopropyl-4H-1,2,4-triazol-3-yl)pyridin-2-yl)-1-isopropyl-7-methyl-N-(4-(4-methylpiperazine-1-carboxamido)benzyl)-4,5,6,7-tetrahydro-1H-pyrazolo[4,3-c]pyridine-3-carboxamide] | 2
19 | Cc1nc2n(n1)CCN(C(=O)c1ccc(N3CCc4c(c(C(=O)NCc5ccc(NC(=O)N(C)C)cc5)nn4C(C)C)C3)nc1)C2 [Example 413, N-(4-(3,3-dimethylureido)benzyl)-1-isopropyl-5-(5-(2-methyl-5,6,7,8-tetrahydro-[1,2,4]triazolo[1,5-a]pyrazine-7-carbonyl)pyridin-2-yl)-4,5,6,7-tetrahydro-1H-pyrazolo[4,3-c]pyridine-3-carboxamide] | 82
